Patent US7517989B2, “Piperidine derivatives useful as modulators of chemokine receptor activity” (AstraZeneca AB, priority 2002, dated 2009)

Test system: Human eosinophils
Experiment: Human eosinophil chemotaxis
Format: cell-based
Conditions: compound concentration not given
Protocol: Human Eosinophil Chemotaxis
Human eosinophils were isolated from EDTA anticoagulated peripheral blood as previously described (Hansel et al., J. Immunol. Methods, 1991, 145, 105-110). The cells were resuspended at 10×10^6 ml^−1 in RPMI containing 200 IU/ml penicillin, 200 μg/ml streptomycin sulphate and supplemented with 10% HIFCS, at room temperature.
Eosinophils (700 μl) were pre-incubated for 15 mins at 37° C. with 7 μl of either vehicle or compound (100× required final concentration in 10% DMSO). The chemotaxis plate (ChemoTx, 3 μm pore, Neuroprobe) was loaded by adding 28 μl of a concentration of eotaxin (0.1 to 100 nM) containing a concentration of a compound according to the Examples or solvent to the lower wells of the chemotaxis plate. The filter was then placed over the wells and 25 μl of eosinophil suspension were added to the top of the filter. The plate was incubated for 1 hr at 37° C. in a humidified incubator with a 95% air/5% CO2 atmosphere to allow chemotaxis.
The medium, containing cells that had not migrated, was carefully aspirated from above the filter and discarded. The filter was washed once with phosphate buffered saline (PBS) containing 5 mM EDTA to remove any adherent cells. […] The number of eosinophils migrating was quantified according to the method of Strath et al., J. Immunol. […]

| SMILES | % Inhibition (3 nM Human Eotaxin) |
| --- | --- |
| O=C(O)C(c1ccccc1)N1CCCC(CN2CCC(Oc3ccc(Cl)c(Cl)c3)CC2)C1 (single isomer, unassigned) [Example 5, 3-[[4-(3,4-dichlorophenoxy)-1-piperidinyl]methyl]-alpha-phenyl-1-piperidineacetic acid] | 96.9% |
| O=C(O)[C@@H](c1ccccc1)N1CCO[C@H](CN2CCC(Oc3ccc(Cl)c(Cl)c3)CC2)C1 [Example 2, (α^4R,2R)-2-[[4-(3,4-dichlorophenoxy)-1-piperidinyl]methyl]-α-phenylmorpholineacetic acid] | 96.4% |

Target: T1, human H1 receptor (Homo sapiens, UniProt P35367)
T1 construct: purchased Euroscreen SA, Brussels, Belgium ES-390-M; host or cells: recombinant CHO-1 cells (membranes)
Experiment: Histamine H1 receptor binding, [3H]-pyrilamine displacement
Conditions: 1 nM [3H]-pyrilamine; membranes of recombinant CHO-1 cells expressing human H1 receptor; read-out: H1 antagonism pKi (converted)

T1 sequence (P35367 whole entry): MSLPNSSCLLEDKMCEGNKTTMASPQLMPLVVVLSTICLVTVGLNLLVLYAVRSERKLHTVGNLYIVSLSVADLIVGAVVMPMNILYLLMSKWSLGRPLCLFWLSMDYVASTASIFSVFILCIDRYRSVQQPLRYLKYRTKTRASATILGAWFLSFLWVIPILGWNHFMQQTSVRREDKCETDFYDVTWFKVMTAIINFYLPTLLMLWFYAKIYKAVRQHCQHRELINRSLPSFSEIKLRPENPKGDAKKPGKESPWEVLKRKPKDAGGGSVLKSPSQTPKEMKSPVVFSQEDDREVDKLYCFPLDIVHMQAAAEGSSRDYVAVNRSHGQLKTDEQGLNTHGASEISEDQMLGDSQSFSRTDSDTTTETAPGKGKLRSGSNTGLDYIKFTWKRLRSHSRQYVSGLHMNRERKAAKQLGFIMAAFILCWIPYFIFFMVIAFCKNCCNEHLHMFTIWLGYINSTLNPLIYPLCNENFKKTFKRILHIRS

| SMILES | Ki |
| --- | --- |
| Cc1cc(Cl)ccc1OC1CCN(CC2CN(C(C(=O)O)c3ccccc3)CCO2)CC1 (single isomer, unassigned) [Example 7] | 0.631 µM |
| Cc1cc(Cl)ccc1OC1CCN(CC2CN(C(C(=O)O)c3ccccc3)CCO2)CC1 (single isomer, unassigned) [Example 8] | 0.126 µM |
| Cc1c(Cl)ccc(OC2CCN(CC3CN(C(C(=O)O)c4ccccc4)CCO3)CC2)c1Cl (single isomer, unassigned) [Example 9] | 0.316 µM |
| Cc1c(Cl)ccc(OC2CCN(CC3CN(C(C(=O)O)c4ccccc4)CCO3)CC2)c1Cl (single isomer, unassigned) [Example 10] | 0.794 µM |
| Cc1c(Cl)ccc(OC2CCN(CC3CN(C(C(=O)O)c4ccccc4)CCO3)CC2)c1Cl (single isomer, unassigned) [Example 11] | 0.251 µM |
| Cc1c(Cl)ccc(OC2CCN(CC3CN(C(C(=O)O)c4ccccc4)CCO3)CC2)c1Cl (single isomer, unassigned) [Example 12] | 0.0316 µM |
| O=C(O)c1ccccc1CN1CCO[C@H](CN2CCC(Oc3ccc(Cl)c(Cl)c3)CC2)C1 [Example 13, 2-[[(2R)-2-[[4-(3,4-dichlorophenoxy)-1-piperidinyl]methyl]-4-morpholinyl]methyl]-benzoic acid] | 0.0316 µM |
| O=C(O)c1ccccc1N1CCO[C@H](CN2CCC(Oc3ccc(Cl)c(Cl)c3)CC2)C1 [Example 15, 2-[(2R)-2-[[4-(3,4-dichlorophenoxy)-1-piperidinyl]methyl]-4-morpholinyl]-benzoic acid] | 0.0251 µM |
